Test results as given in PMC7282810, “Existence and functions of a kisspeptin neuropeptide signaling system in a non-chordate deuterostome species” (eLife, 2020).
Entries after “also recorded” stand apart in the source; their conditions may differ. Like-named read-outs stand apart in the source and are kept apart here. Where a SMILES comes first, the peptide text is derived from it. Bridges are numbered along the chain shown (N, C = ends).

Columns and labels:
[1] = tested on: zebrafish kisspeptin receptor DrKiss1Rb; experiment: Intracellular Ca2+ mobilization (Fura-2/AM) in DrKiss1Rb-expressing HEK293 cells; type: cell-based; details: 1.0 μM peptide, HEK293, Fura-2/AM
Experimental: (§1) The fluorescent Ca^2+ indicator Fura-2/AM was used to detect intracellular calcium flux ([Li et al., 2010]). Briefly, the HEK293 cells expressing the AjKissR1, AjKissR2 or vertebrate kisspeptin receptor were washed twice with PBS and suspended at 5 × 10^6 cells/mL in Hanks’ balanced salt solution. The cells were then loaded with 3.0 μM Fura-2/AM for 30 min and washed twice in Hanks’ solution. They were then stimulated with the indicated concentrations of different predicted A. japonicus kisspeptins or vertebrate kisspeptins. Finally, intracellular calcium flux was measured for 60 s, by determining the ratio of excitation wavelengths at 340 and 380 nm using a fluorescence spectrometer (Infinite 200 PRO, Tecan, Männedorf, Switzerland). All of the experiments for measuring Ca^2+ mobilization were repeated independently at least three times.

[2] = tested on: AjKissR2-EGFP; experiment: Receptor internalization (translocation) by confocal microscopy, AjKissR2-EGFP; type: cell-based, Apostichopus japonicus; details: 1.0 μM ligand, 60 min
Experimental: For receptor-surface expression analysis, HEK293 cells expressing AjKissR1/2-EGFP were seeded onto glass coverslips in 12-well plates, coated with 0.1 mg/mL poly-L-lysine, and allowed to attach overnight under normal growth conditions ([Li et al., 2010]). The cells were washed three times with PBS and further stained with the membrane probe DiI (Beyotime) at 37°C for 5–10 min, fixed with 4% paraformaldehyde for 10 min, and then incubated with DAPI (Beyotime) for 5–10 min. For the translocation assays, the receptor-expressing cells were treated with 1.0 μM of various stimuli for 60 min, washed three times with PBS and then fixed with 4% paraformaldehyde in PBS for 10 min at room temperature. Finally, the cells were mounted in mounting reagent (DTT/PBS/glycerol, 1:8:2) and visualized by fluorescence microscopy on a Zeiss laser scanning confocal microscope, which was attached to a Zeiss Axiovert 200 microscope and linked to an LSM5 computer system.

[3] = biological target: T1, AjKissR1 (Apostichopus japonicus, UniProt A0A5B7LK60); experiment: Ligand competition binding assay (FITC-AjKiss1a, FACS), HEK293/AjKissR1; details: 1.0 μM FITC-AjKiss1a, read-out: IC50 (competitive displacement of FITC-AjKiss1a)
T1 sequence (A0A5B7LK60 1-378): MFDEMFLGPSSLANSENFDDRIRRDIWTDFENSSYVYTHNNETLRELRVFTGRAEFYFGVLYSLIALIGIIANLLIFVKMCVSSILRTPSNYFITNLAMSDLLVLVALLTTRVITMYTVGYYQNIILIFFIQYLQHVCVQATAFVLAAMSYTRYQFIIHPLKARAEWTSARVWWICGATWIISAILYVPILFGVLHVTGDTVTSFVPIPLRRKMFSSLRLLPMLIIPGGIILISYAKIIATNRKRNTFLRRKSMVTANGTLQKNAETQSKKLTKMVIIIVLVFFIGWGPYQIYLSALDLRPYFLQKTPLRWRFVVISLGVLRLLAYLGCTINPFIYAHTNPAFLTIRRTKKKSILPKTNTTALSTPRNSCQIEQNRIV
Experimental: (§2) A fluorescence-activated cell sorter (FACS) was used to detect the binding ability of kisspeptins with AjKissR1 or AjKissR2. HEK293 cells expressing FLAG–AjKissR1 or FLAG–AjKissR2 were washed with PBS that contained 0.2% bovine serum albumin (FACS buffer). We designed and synthesized an N-terminal FITC-labeled AjKiss1a peptide (see 'Key resources table'). Different kisspeptins were diluted in the FACS buffer to different concentrations, then added to cells that were incubated on ice for 60–90 min. Cells were washed thrice with the FACS buffer and re-suspended in the FACS buffer with 1% paraformaldehyde for 15 min. The binding activity of the indicated kisspeptin peptides with AjKissR1 or AjKissR2 was determined by measuring the fluorescence of FITC and was presented as a percentage of total binding.

[4] = tested on: human kisspeptin receptor (HsKiss1R); experiment: Intracellular Ca2+ mobilization (Fura-2/AM) in HsKiss1R-expressing HEK293 cells; type: cell-based; details: 1.0 μM peptide, HEK293, Fura-2/AM
Experimental: as §1

[5] = biological target: T2, AjKissR2 (Apostichopus japonicus, UniProt A0A5B7LIE4); type: cell-based; details: Ca2+ trace (Fura-2/AM) area under curve, AjKiss1a at Log[M] -10 (100 pM), HEK293/AjKissR2, 68 s trace
T2 sequence (A0A5B7LIE4 1-327): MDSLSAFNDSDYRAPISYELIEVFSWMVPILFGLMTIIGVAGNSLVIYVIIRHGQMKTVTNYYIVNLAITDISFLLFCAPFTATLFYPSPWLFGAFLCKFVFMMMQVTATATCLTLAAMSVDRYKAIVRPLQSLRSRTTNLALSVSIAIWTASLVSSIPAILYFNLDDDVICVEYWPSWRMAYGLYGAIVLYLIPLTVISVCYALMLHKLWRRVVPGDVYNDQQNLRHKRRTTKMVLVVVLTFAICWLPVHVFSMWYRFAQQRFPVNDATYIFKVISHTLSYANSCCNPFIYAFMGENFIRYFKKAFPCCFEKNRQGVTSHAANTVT

[6] = biological target: T2, AjKissR2; experiment: cell-based; type: cell-based; details: for AUC: Ca2+ trace area under curve, HEK293/AjKissR2
Experimental: as §1

[7] = biological target: T1, AjKissR1; experiment: cell-based; type: cell-based
Experimental: as §1

[8] = biological target: T2, AjKissR2; experiment: Ligand competition binding assay (FITC-AjKiss1a, FACS), HEK293/AjKissR2; details: 1.0 μM FITC-AjKiss1a, read-out: IC50 (competitive displacement of FITC-AjKiss1a)
Experimental: as §2

[9] = tested on: zebrafish kisspeptin receptor DrKiss1Ra; experiment: Intracellular Ca2+ mobilization (Fura-2/AM) in DrKiss1Ra-expressing HEK293 cells; type: cell-based; details: 1.0 μM peptide, HEK293, Fura-2/AM
Experimental: as §1

[10] = log(agonist) vs. response (three parameters) fit of AUC, AjKiss1a on AjKissR2, 5 points
[11] = fit of AUC vs Log[AjKiss1a]M, source data Figure 3B1

With `CC(C)C[C@H](NC(=O)[C@H](CO)NC(=O)CNC(=O)[C@H](C)N)C(=O)N[C@@H](CC(=O)O)C(=O)N[C@H]1CSSC[C@@H](C(=O)N[C@@H](CCC(=O)O)C(=O)N[C@@H](CC(=O)O)C(=O)N[C@H](C(=O)N[C@@H](CCC(=O)O)C(=O)N[C@@H](CCCNC(=N)N)C(=O)N[C@@H](CCCNC(=N)N)C(=O)NCC(=O)N[C@@H](CCCNC(=N)N)C(=O)N[C@@H](CCC(N)=O)C(=O)N2CCC[C@H]2C(=O)N[C@@H](CC(N)=O)C(=O)N[C@@H](CCCNC(=N)N)C(=O)N[C@@H](CC(N)=O)C(=O)N[C@@H](C)C(=O)N[C@@H](Cc2c[nH]cn2)C(=O)N[C@@H](Cc2ccc(O)cc2)C(=O)N[C@@H](CCCNC(=N)N)C(=O)N[C@H](C(=O)N[C@@H](CC(C)C)C(=O)N2CCC[C@H]2C(=O)N[C@@H](Cc2ccccc2)C(N)=O)[C@@H](C)O)C(C)C)NC(=O)[C@H](CO)NC(=O)[C@H](C)NC(=O)[C@H](CCC(=O)O)NC(=O)[C@H](CC(C)C)NC1=O` [AjKiss1a] (H-AGSLDCLEASCEDVERRGRQPNRNAHYRTLPF-NH2; disulfide 6-11) the “Activation of DrKiss1Rb, Ca2+ mobilization (in words)” value [1] was “could activate; also recorded: could potentiate”, the “Internalization of AjKissR2-EGFP from the plasma membrane to the cytoplasm (in words)” value [2] was “significant internalization” and the IC50 [3] was 0.568 µM. For the same compound, the “Activation of HsKiss1R, Ca2+ mobilization (in words)” value [4] was “could activate; also recorded: could potentiate”, the AUC [5] was 7.592 and the EC50 [6] was 0.00198 µM. It also gave an AUC ([6]; AjKiss1a at Log[M] -6 (1 μM)) of 24.14, an AUC ([6]; AjKiss1a at Log[M] -7 (100 nM)) of 24.83 and an AUC ([6]; AjKiss1a at Log[M] -8 (10 nM)) of 24.2. For the same compound, the AUC ([6]; AjKiss1a at Log[M] -9 (1 nM)) was 11.14, the “Bottom (best-fit value)” value [6, 10] was 6.057 and the “Span (best-fit value)” value [6, 10] was 19.28. The “Top (best-fit value)” value [6, 10] was 25.34, the “LogEC50 (best-fit value)” value ([6]; log(agonist) vs. response (three parameters) fit of AUC, Log[AjKiss1a]M, AjKissR2, 5 points) was -8.703 and the EC50 [7] was 0.0808 µM. For the same compound, the “AUC (Ca2+ mobilization)” value ([7]; Log[AjKiss1a]M -6) was 18.82, the “AUC (Ca2+ mobilization)” value ([7]; Log[AjKiss1a]M -7) was 12.93 and the “AUC (Ca2+ mobilization)” value ([7]; Log[AjKiss1a]M -8) was 8.793. The “AUC (Ca2+ mobilization)” value ([7]; Log[AjKiss1a]M -9) was 6.715, the “AUC (Ca2+ mobilization)” value ([7]; Log[AjKiss1a]M -10) was 4.474 and the “Bottom (best-fit value)” value [7, 11] was 5.962. For the same compound, the “LogEC50 (best-fit value)” value [7, 11] was -7.093, the “Span (best-fit value)” value [7, 11] was 13.69 and the “Top (best-fit value)” value [7, 11] was 19.65. The IC50 [8] was 0.0952 µM and the “Activation of DrKiss1Ra, Ca2+ mobilization (in words)” value [9] was “could activate; also recorded: could potentiate”.
